Measured values from BindingDB's records for doi:10.1016/j.bmcl.2011.12.068 (Janssen Pharmaceutica, 2012).

Legend:
[1] = molecular target: Transient receptor potential cation channel subfamily A member 1 (Homo sapiens, UniProt O75762); test: Antagonist activity at human TRPA1 expressed in HEK293 cells assessed as inhibition of 5H-dibenzo[b,e]azepine-10-carboxylic acid methyl ester-induced increase in intracellular calcium by Fluo4-AM based fluorometric assay
[2] = molecular target: Transient receptor potential cation channel subfamily A member 1 (Rattus norvegicus, UniProt Q6RI86); test: Antagonist activity at rat TRPA1 expressed in HEK293 cells assessed as inhibition of BITC-induced increase in intracellular calcium concentration by Fluo4-AM based fluorometric assay
Transient receptor potential cation channel subfamily A member 1 (Rattus norvegicus, UniProt Q6RI86), sequence (Q6RI86 whole entry E27K): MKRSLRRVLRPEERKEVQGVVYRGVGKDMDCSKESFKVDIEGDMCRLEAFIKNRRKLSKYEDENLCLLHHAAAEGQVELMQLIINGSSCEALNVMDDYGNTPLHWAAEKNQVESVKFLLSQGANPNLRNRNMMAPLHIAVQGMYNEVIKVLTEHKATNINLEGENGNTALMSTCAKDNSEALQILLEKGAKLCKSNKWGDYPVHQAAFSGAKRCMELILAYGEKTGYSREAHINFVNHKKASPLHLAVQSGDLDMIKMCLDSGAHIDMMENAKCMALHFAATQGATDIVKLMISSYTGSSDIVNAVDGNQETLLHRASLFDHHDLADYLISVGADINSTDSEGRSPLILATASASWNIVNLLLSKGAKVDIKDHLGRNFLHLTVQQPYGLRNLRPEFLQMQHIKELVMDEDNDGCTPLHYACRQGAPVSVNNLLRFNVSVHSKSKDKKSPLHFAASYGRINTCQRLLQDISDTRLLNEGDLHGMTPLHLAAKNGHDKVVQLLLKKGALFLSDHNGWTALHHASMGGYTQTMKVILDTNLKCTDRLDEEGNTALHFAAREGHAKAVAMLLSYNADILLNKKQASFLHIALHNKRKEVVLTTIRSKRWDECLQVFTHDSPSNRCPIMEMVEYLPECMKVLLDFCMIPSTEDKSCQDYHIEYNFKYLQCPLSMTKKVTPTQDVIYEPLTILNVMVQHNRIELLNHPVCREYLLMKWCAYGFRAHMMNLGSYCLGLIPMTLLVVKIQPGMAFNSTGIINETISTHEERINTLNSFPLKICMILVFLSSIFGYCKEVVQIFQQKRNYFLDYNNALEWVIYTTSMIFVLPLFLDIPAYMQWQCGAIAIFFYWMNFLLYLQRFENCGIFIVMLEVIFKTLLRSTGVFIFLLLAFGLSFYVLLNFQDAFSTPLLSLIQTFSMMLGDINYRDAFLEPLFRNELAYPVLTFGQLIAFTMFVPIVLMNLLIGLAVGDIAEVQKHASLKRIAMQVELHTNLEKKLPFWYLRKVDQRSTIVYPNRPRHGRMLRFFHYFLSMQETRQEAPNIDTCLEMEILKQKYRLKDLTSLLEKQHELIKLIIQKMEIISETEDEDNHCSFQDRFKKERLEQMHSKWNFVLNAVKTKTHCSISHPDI

Transient receptor potential cation channel subfamily A member 1 (Homo sapiens, UniProt O75762), sequence (O75762 whole entry): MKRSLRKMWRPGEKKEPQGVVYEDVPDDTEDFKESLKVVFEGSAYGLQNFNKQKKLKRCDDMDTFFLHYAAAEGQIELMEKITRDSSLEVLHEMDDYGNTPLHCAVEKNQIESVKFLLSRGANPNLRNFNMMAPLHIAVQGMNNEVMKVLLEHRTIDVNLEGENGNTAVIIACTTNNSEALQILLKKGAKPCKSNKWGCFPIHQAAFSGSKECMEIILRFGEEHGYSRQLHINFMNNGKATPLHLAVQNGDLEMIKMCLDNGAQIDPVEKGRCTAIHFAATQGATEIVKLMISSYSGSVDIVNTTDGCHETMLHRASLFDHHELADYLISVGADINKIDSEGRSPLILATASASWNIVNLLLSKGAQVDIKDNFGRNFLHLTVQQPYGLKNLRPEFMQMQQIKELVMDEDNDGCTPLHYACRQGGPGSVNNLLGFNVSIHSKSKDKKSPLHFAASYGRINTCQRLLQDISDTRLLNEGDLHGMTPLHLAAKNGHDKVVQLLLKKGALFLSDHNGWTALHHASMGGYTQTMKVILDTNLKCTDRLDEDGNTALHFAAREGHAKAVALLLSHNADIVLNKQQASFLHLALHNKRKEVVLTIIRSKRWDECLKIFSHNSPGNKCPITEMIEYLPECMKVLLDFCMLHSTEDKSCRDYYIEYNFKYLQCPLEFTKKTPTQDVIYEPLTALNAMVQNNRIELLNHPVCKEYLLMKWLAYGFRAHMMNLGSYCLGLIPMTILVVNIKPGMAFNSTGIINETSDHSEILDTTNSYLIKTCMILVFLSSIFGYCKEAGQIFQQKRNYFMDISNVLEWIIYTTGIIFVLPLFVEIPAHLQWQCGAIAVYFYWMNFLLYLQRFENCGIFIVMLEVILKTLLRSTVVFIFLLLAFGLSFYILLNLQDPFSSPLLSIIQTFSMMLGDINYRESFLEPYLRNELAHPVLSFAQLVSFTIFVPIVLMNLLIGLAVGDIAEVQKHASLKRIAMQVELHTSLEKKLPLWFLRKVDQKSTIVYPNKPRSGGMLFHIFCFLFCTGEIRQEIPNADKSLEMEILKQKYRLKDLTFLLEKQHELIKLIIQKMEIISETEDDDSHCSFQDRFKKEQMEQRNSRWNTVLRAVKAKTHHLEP

IC50 [1]	IC50 [2]	SMILES
> 10 µM		S=C1N=C(c2ccccc2)CC(c2ccccc2)N1 (stereo not given)
> 10 µM		S=C1N=C2C(=Cc3ccccc3)CCCC2C(c2ccccc2)N1 (stereo not given)
> 10 µM	> 10 µM	CN(C)CCCOc1cccc(C2NC(=S)N=C3c4ccccc4C(=O)C32)c1 (stereo not given)
> 10 µM		S=C1N=C2c3ccccc3CCC2C(c2ccccc2)N1 (stereo not given)
> 10 µM	> 10 µM	O=C1N=C2c3ccccc3C(=O)C2C(c2ccccc2)N1 (stereo not given)
> 10 µM	> 10 µM	COc1ccc(OC)c(C2NC(=S)N=C3c4ccccc4C(=O)C32)c1 (stereo not given)
> 10 µM		S=C1N=C2CCCC2C(c2ccccc2)N1 (stereo not given)
> 10 µM		O=C1CCCC2=NC(=S)NC(c3ccccc3)C12 (stereo not given)
> 10 µM	> 10 µM	O=C(O)c1cccc(C2NC(=S)N=C3c4ccccc4C(=O)C32)c1 (stereo not given)
> 10 µM		CC1=NC(=S)NC(c2ccccc2)C1C(=O)c1ccccc1 (stereo not given)
> 10 µM		S=C1N=C2CCCCC2C(c2ccccc2)N1 (stereo not given)
